# According to the NIST ThermoML archive (doi:10.1016/j.fluid.2014.05.023):
# Where “and” joins values, the source holds several entries; their conditions need not be identical. Equal values may be shown once. Numbers after ± are expanded uncertainties.
# Assay: activity coefficient (dimensionless); of the first substance listed, at infinite dilution; xn = mol fraction of the nth substance listed
# Conditions: 101 kPa, Liquid, Chromatography, x1 = 0
Structure (SMILES),activity coefficient (273.35 K),activity coefficient (283.15 K),activity coefficient (293.15 K),activity coefficient (298.15 K),activity coefficient (303.15 K),activity coefficient (313.15 K),activity coefficient (323.15 K),activity coefficient (333.15 K),activity coefficient (341.15 K),activity coefficient (351.15 K),activity coefficient (361.25 K)
CCOC(C)=O [ethyl acetate] + O,44.5 ± 3,54.9 ± 3.8,64.8 and 68,69.2 ± 4.7,73.6 ± 5,80.1 ± 5.5,,,,,
CCCOC(C)=O [propyl ethanoate] + O,172 ± 12,217 ± 15,274 and 257,261 and 270,281 ± 19,302 ± 21,319 ± 22,321 ± 22,,,
CCCC(=O)OCC [ethyl butanoate] + O,,,993 ± 68,,1090 ± 75,1150 ± 79,1180 ± 81,1180 ± 81,1110 ± 120,1030 ± 110,
CCOC(=O)CC [ethyl propanoate] + O,,,252 ± 17,,291 ± 20,312 ± 21,329 ± 23,343 ± 24,332 and 328,366 and 321,283 ± 57
CCCCOC(C)=O [butyl ethanoate] + O,613 ± 42,799 ± 55,942 ± 65,1040 ± 72,1080 ± 75,1140 ± 79,1160 ± 80,1140 ± 78,,,
